# Laboratory results as given in ChEMBL document CHEMBL1134116, “Ethambutol analogues as potential antimycobacterial agents” (Bioorg Med Chem Lett, 2001).
# Activity calls are given as the source filed them. The rule behind the calls is not given here.
# Tested on: Mycolicibacterium smegmatis
# Assay: Antimycobacterial activity was evaluated against Mycobacterium smegmatis; Inactive
# Assay type: functional, organism-based
row,SMILES,Activity
1,O=C(O)CNCCNCC(=O)O,inactive
2,OCCNCCNCCO,inactive
3,COC(=O)[C@H](CO)NCCN[C@@H](CO)C(=O)OC,inactive
4,O=C(O)CN(CCN(CC(=O)O)CC(=O)O)CC(=O)O,inactive

# Tested on: Mycolicibacterium smegmatis
# Assay: Antimycobacterial activity was evaluated against Mycobacterium smegmatis; Active
# Assay type: functional, organism-based
row,SMILES,Activity
1,CC(C)C[C@@H](CO)NCCN[C@@H](CO)CC(C)C,Active
2,CC[C@@H](CO)NCCN1CCC[C@H]1CO,Active
3,OCCNCCNCCO,Active
4,CC[C@@H](CO)NCCN[C@@H](CC)CO,Active
5,CC[C@H](CO)NCCN[C@@H](CC)CO,Active
6,CC[C@@H](CO)NCCN[C@@H](C)CO,Active
7,OC[C@H](Cc1ccccc1)NCCN[C@@H](CO)Cc1ccccc1,Active
8,CC[C@@H](CO)NCCN[C@H](C)CO,Active
9,OC[C@H]1N[C@@H](CSc2ccccc2)C(O)[C@H]1O (stereo not given in full),Active
10,OC[C@@H]1CCCN1CCN1CCC[C@H]1CO,Active
11,CC(C)[C@@H](CO)NCCN[C@H](CO)C(C)C,Active
